Source: ChEMBL document CHEMBL1201862, “PubChem BioAssay data set” (2004)
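Tested at 5 concentrations; 48 h exposure; 96-well plates; endpoints linearly interpolated, else capped at highest concentration. At the GI50, growth is halved.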 Activity calls are given as the source filed them. Rule as the data show it: active = GI50 up to about 1.1 µM and inactive = higher.

Columns and labels:
Assay in all cases: NCI-60 cell line screen, 48 h
MDA-MB-231 = tested on: MDA-MB-231
SF-295 = tested on: SF-295
A549 = tested on: A549
UO-31 = tested on: UO-31
NCI-H23 = tested on: NCI-H23
SR = tested on: SR
Malme-3M = tested on: Malme-3M
CAKI-1 = tested on: CAKI-1
T47D = tested on: T47D
EKVX = tested on: EKVX
OVCAR-4 = tested on: OVCAR-4
M14 = tested on: M14
TK-10 = tested on: TK-10
SK-MEL-2 = tested on: SK-MEL-2
HCT-116 = tested on: HCT-116
RPMI-8226 = tested on: RPMI-8226
MDA-N = tested on: MDA-N
HOP-92 = tested on: HOP-92
MOLT-4 = tested on: MOLT-4
NCI-H226 = tested on: NCI-H226
PC-3 = tested on: PC-3
MCF7 = tested on: MCF7
HL-60 = tested on: HL-60
U-251 = tested on: U-251
UACC-257 = tested on: UACC-257
LOX IMVI = tested on: LOX IMVI
HCC 2998 = tested on: HCC 2998
OVCAR-5 = tested on: OVCAR-5
SW-620 = tested on: SW-620
KM12 = tested on: KM12
SF-539 = tested on: SF-539
IGROV-1 = tested on: IGROV-1
SK-MEL-28 = tested on: SK-MEL-28
NCI-H460 = tested on: NCI-H460
786-0 = tested on: 786-0
SK-MEL-5 = tested on: SK-MEL-5
HOP-62 = tested on: HOP-62
Hs-578T = tested on: Hs-578T
BT-549 = tested on: BT-549
SF-268 = tested on: SF-268
K562 = tested on: K562
SK-OV-3 = tested on: SK-OV-3
COLO 205 = tested on: COLO 205
MDA-MB-435 = tested on: MDA-MB-435
DU-145 = tested on: DU-145
UACC-62 = tested on: UACC-62
NCI/ADR-RES = tested on: NCI/ADR-RES
SNB-75 = tested on: SNB-75
ACHN = tested on: ACHN
HT-29 = tested on: HT-29
OVCAR-8 = tested on: OVCAR-8
HCT-15 = tested on: HCT-15
OVCAR-3 = tested on: OVCAR-3
NCI-H522 = tested on: NCI-H522
SN12C = tested on: SN12C
CCRF-CEM = tested on: CCRF-CEM
SNB-19 = tested on: SNB-19
A498 = tested on: A498
RXF 393 = tested on: RXF 393

For `Oc1ccccc1-n1nc2ccc3nonc3c2n1`, the GI50 (MDA-MB-231) was > 100 µM (inactive), the GI50 (SF-295) was > 100 µM (inactive) and the GI50 (A549) was > 100 µM (inactive). For the same compound, the GI50 (UO-31) was 77.4 µM (inactive), the GI50 (NCI-H23) was > 100 µM (inactive) and the GI50 (SR) was > 100 µM (inactive). The GI50 (Malme-3M) was > 100 µM (inactive), the GI50 (CAKI-1) was > 100 µM (inactive) and the GI50 (T47D) was > 100 µM (inactive). The GI50 (EKVX) was 48.1 µM (inactive), the GI50 (OVCAR-4) was > 100 µM (inactive) and the GI50 (M14) was > 100 µM (inactive). For the same compound, the GI50 (TK-10) was > 100 µM (inactive), the GI50 (SK-MEL-2) was > 100 µM (inactive) and the GI50 (HCT-116) was > 100 µM (inactive). For the same compound, the GI50 (RPMI-8226) was > 100 µM (inactive), the GI50 (MDA-N) was > 100 µM (inactive) and the GI50 (HOP-92) was > 100 µM (inactive). The GI50 (MOLT-4) was > 100 µM (inactive), the GI50 (NCI-H226) was > 100 µM (inactive) and the GI50 (PC-3) was > 100 µM (inactive). The GI50 (MCF7) was > 100 µM (inactive), the GI50 (HL-60) was > 100 µM (inactive) and the GI50 (U-251) was > 100 µM (inactive). For the same compound, the GI50 (UACC-257) was > 100 µM (inactive), the GI50 (LOX IMVI) was > 100 µM (inactive) and the GI50 (HCC 2998) was 40.9 µM (inactive). The GI50 (OVCAR-5) was > 100 µM (inactive), the GI50 (SW-620) was > 100 µM (inactive) and the GI50 (KM12) was 30.3 µM (inactive). For the same compound, the GI50 (SF-539) was > 100 µM (inactive), the GI50 (IGROV-1) was > 100 µM (inactive) and the GI50 (SK-MEL-28) was > 100 µM (inactive). The GI50 (NCI-H460) was > 100 µM (inactive), the GI50 (786-0) was > 100 µM (inactive) and the GI50 (SK-MEL-5) was > 100 µM (inactive). For the same compound, the GI50 (HOP-62) was 90.2 µM (inactive), the GI50 (Hs-578T) was > 100 µM (inactive) and the GI50 (BT-549) was > 100 µM (inactive). The GI50 (SF-268) was > 100 µM (inactive), the GI50 (K562) was > 100 µM (inactive) and the GI50 (SK-OV-3) was > 100 µM (inactive). The GI50 (COLO 205) was > 100 µM (inactive), the GI50 (MDA-MB-435) was > 100 µM (inactive) and the GI50 (DU-145) was > 100 µM (inactive). For the same compound, the GI50 (UACC-62) was > 100 µM (inactive), the GI50 (NCI/ADR-RES) was > 100 µM (inactive) and the GI50 (SNB-75) was > 100 µM (inactive). For the same compound, the GI50 (ACHN) was > 100 µM (inactive), the GI50 (HT-29) was > 100 µM (inactive) and the GI50 (OVCAR-8) was > 100 µM (inactive). The GI50 (HCT-15) was 51.3 µM, the GI50 (OVCAR-3) was > 100 µM (inactive) and the GI50 (NCI-H522) was > 100 µM (inactive). For the same compound, the GI50 (SN12C) was > 100 µM (inactive), the GI50 (CCRF-CEM) was > 100 µM (inactive) and the GI50 (SNB-19) was > 100 µM (inactive).

With `CCNCC(O)COc1ccc2c(c1)[n+]([O-])nc(N)[n+]2[O-]` (stereo not given) the GI50 (MDA-MB-231) was > 100 µM (inactive), the GI50 (SF-295) was 34.4 µM (inactive) and the GI50 (A549) was 24.2 µM (inactive). The GI50 (UO-31) was > 100 µM (inactive), the GI50 (NCI-H23) was 47.4 µM (inactive) and the GI50 (SR) was 45.5 µM (inactive). For the same compound, the GI50 (CAKI-1) was 26.9 µM (inactive), the GI50 (T47D) was 81.8 µM (inactive) and the GI50 (EKVX) was > 100 µM (inactive). The GI50 (OVCAR-4) was 37.2 µM (inactive), the GI50 (M14) was 40.7 µM (inactive) and the GI50 (TK-10) was > 100 µM (inactive). The GI50 (SK-MEL-2) was 39.6 µM (inactive), the GI50 (HCT-116) was 50.2 µM (inactive) and the GI50 (RPMI-8226) was 61.9 µM (inactive). For the same compound, the GI50 (MDA-N) was > 100 µM (inactive), the GI50 (MOLT-4) was 14.5 µM (inactive) and the GI50 (NCI-H226) was 59.2 µM (inactive). The GI50 (PC-3) was 24.7 µM (inactive), the GI50 (MCF7) was 74 µM (inactive) and the GI50 (HL-60) was 43.1 µM (inactive). The GI50 (U-251) was 42.7 µM (inactive), the GI50 (UACC-257) was > 100 µM (inactive) and the GI50 (LOX IMVI) was 14.3 µM (inactive). For the same compound, the GI50 (OVCAR-5) was > 100 µM (inactive), the GI50 (SW-620) was 32.7 µM (inactive) and the GI50 (KM12) was 59.3 µM (inactive). The GI50 (SF-539) was 37.3 µM (inactive), the GI50 (IGROV-1) was 36.3 µM (inactive) and the GI50 (SK-MEL-28) was > 100 µM (inactive). For the same compound, the GI50 (A498) was 27.8 µM (inactive), the GI50 (NCI-H460) was > 10 µM (inactive) and the GI50 (786-0) was 51.6 µM (inactive). The GI50 (SK-MEL-5) was 24.8 µM (inactive), the GI50 (HOP-62) was 23.5 µM (inactive) and the GI50 (Hs-578T) was 54.6 µM (inactive). The GI50 (BT-549) was > 100 µM (inactive), the GI50 (SF-268) was 31.3 µM (inactive) and the GI50 (K562) was 35.2 µM (inactive). For the same compound, the GI50 (SK-OV-3) was 10.6 µM (inactive), the GI50 (COLO 205) was 68.9 µM (inactive) and the GI50 (MDA-MB-435) was > 100 µM (inactive). For the same compound, the GI50 (DU-145) was 71.3 µM (inactive), the GI50 (UACC-62) was 18 µM (inactive) and the GI50 (NCI/ADR-RES) was > 100 µM (inactive). The GI50 (SNB-75) was 29.4 µM (inactive), the GI50 (ACHN) was 30.1 µM (inactive) and the GI50 (HT-29) was 68.9 µM (inactive). For the same compound, the GI50 (OVCAR-8) was 56 µM (inactive), the GI50 (HCT-15) was 63.7 µM and the GI50 (OVCAR-3) was > 100 µM (inactive). The GI50 (NCI-H522) was 12.6 µM (inactive), the GI50 (SN12C) was 45.4 µM (inactive) and the GI50 (CCRF-CEM) was 19 µM (inactive). For the same compound, the GI50 (SNB-19) was 61.2 µM (inactive).

With `COc1ccc(C(OCC2OC(n3cnc4c(=O)n(Cc5ccccc5[N+](=O)[O-])nnc43)C(O)C2O)(c2ccccc2)c2ccc(OC)cc2)cc1` (stereo not given) the GI50 (MDA-MB-231) was 14.1 µM (inactive), the GI50 (SF-295) was 5.97 µM (inactive) and the GI50 (A549) was 5.57 µM (inactive). For the same compound, the GI50 (UO-31) was 11.4 µM (inactive), the GI50 (NCI-H23) was 13.4 µM (inactive) and the GI50 (RXF 393) was 11.5 µM (inactive). For the same compound, the GI50 (Malme-3M) was 14.7 µM (inactive), the GI50 (CAKI-1) was 10.7 µM (inactive) and the GI50 (T47D) was 11.5 µM (inactive). The GI50 (EKVX) was 29.3 µM (inactive), the GI50 (OVCAR-4) was 20.6 µM (inactive) and the GI50 (M14) was 8.51 µM (inactive). The GI50 (TK-10) was 9.53 µM (inactive), the GI50 (SK-MEL-2) was 14.7 µM (inactive) and the GI50 (HCT-116) was 5.6 µM (inactive). For the same compound, the GI50 (RPMI-8226) was 3.36 µM (inactive), the GI50 (MDA-N) was 7.52 µM (inactive) and the GI50 (HOP-92) was 2.38 µM (inactive). The GI50 (MOLT-4) was 2.31 µM (inactive), the GI50 (NCI-H226) was 5.92 µM (inactive) and the GI50 (PC-3) was 3.85 µM (inactive). For the same compound, the GI50 (MCF7) was 4.28 µM (inactive), the GI50 (HL-60) was 2.18 µM (inactive) and the GI50 (U-251) was 11 µM (inactive). The GI50 (UACC-257) was 22.2 µM (inactive), the GI50 (LOX IMVI) was 6.85 µM (inactive) and the GI50 (HCC 2998) was 6.97 µM (inactive). For the same compound, the GI50 (OVCAR-5) was 27.8 µM (inactive), the GI50 (SW-620) was 17.6 µM (inactive) and the GI50 (KM12) was 13.1 µM (inactive). For the same compound, the GI50 (SF-539) was 11.8 µM (inactive), the GI50 (IGROV-1) was 10.9 µM (inactive) and the GI50 (SK-MEL-28) was 16.7 µM (inactive). The GI50 (A498) was 4.46 µM (inactive), the GI50 (NCI-H460) was 5.57 µM (inactive) and the GI50 (786-0) was 10.8 µM (inactive). The GI50 (SK-MEL-5) was 9.31 µM (inactive), the GI50 (HOP-62) was 21.6 µM (inactive) and the GI50 (Hs-578T) was 20.8 µM (inactive). For the same compound, the GI50 (BT-549) was 16.4 µM (inactive), the GI50 (SF-268) was 16 µM (inactive) and the GI50 (K562) was 4.6 µM (inactive). For the same compound, the GI50 (SK-OV-3) was 20.4 µM (inactive), the GI50 (COLO 205) was 6.84 µM (inactive) and the GI50 (MDA-MB-435) was 10.4 µM (inactive). The GI50 (DU-145) was 19.6 µM (inactive), the GI50 (UACC-62) was 12.5 µM (inactive) and the GI50 (NCI/ADR-RES) was 19.1 µM (inactive). The GI50 (SNB-75) was 45.7 µM (inactive), the GI50 (ACHN) was 14 µM (inactive) and the GI50 (HT-29) was 4.31 µM (inactive). The GI50 (OVCAR-8) was 8.11 µM (inactive), the GI50 (HCT-15) was 9.31 µM and the GI50 (OVCAR-3) was 9.82 µM (inactive). For the same compound, the GI50 (NCI-H522) was 6.49 µM (inactive), the GI50 (SN12C) was 6.9 µM (inactive) and the GI50 (CCRF-CEM) was 3.76 µM (inactive). For the same compound, the GI50 (SNB-19) was 44.9 µM (inactive).
